# Data reported in ChEMBL document CHEMBL1157025, “Evaluation of aldose reductase inhibition and docking studies of 6'-nitro and 6',6''-dinitrorosmarinic acids” (Eur J Med Chem, 2010).
# Target: Aldo-keto reductase family 1 member B1 (Homo sapiens, UniProt P15121)
# Experiment: Inhibition of aldose reductase
Compound,IC50 (read-out: IC50) [nM],IC50 [nM]
O=C(/C=C/c1ccc(O)c(O)c1)O[C@H](Cc1cc(O)c(O)cc1[N+](=O)[O-])C(=O)O,1840,
O=C(/C=C/c1cc(O)c(O)cc1[N+](=O)[O-])O[C@H](Cc1cc(O)c(O)cc1[N+](=O)[O-])C(=O)O,741,
O=C(/C=C/c1ccc(O)c(O)c1)O[C@H](Cc1ccc(O)c(O)c1)C(=O)O [ROSMARINIC ACID],,3910
